From ChEMBL document CHEMBL1201862, “PubChem BioAssay data set” (2004)
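Where inhibition never reached the appropriate level, the endpoint shown equals the highest concentration tested. Otherwise, values were interpolated linearly from a five-concentration, 48-hour dose response in 96-well plates. Abbreviation: GI50, concentration required for 50% inhibition of growth.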 Active and inactive are the calls of the source. No stated cut-off is given here; in the data, active = GI50 up to about 1.1 µM and inactive = higher.

What was measured:
Assay in all cases: inhibition of tumour cell growth, NCI panel, 48 h
SK-MEL-5 = system: SK-MEL-5
RPMI-8226 = system: RPMI-8226
ACHN = system: ACHN
KM12 = system: KM12
A498 = system: A498
SF-268 = system: SF-268
SNB-78 = system: SNB-78
UACC-257 = system: UACC-257
HL-60 = system: HL-60
EKVX = system: EKVX
SR = system: SR
OVCAR-5 = system: OVCAR-5
HT-29 = system: HT-29
786-0 = system: 786-0
COLO 205 = system: COLO 205
SK-MEL-28 = system: SK-MEL-28
SF-539 = system: SF-539
MDA-N = system: MDA-N
MDA-MB-231 = system: MDA-MB-231
MDA-MB-435 = system: MDA-MB-435

Measured: GI50

c1coc(CNc2[nH]cnc3nncc2-3)c1
inactive: SK-MEL-5 > 100 µM | RPMI-8226 73.8 µM | ACHN > 100 µM | KM12 > 100 µM | A498 > 100 µM | SF-268 > 100 µM | SNB-78 > 100 µM | UACC-257 > 100 µM | HL-60 87.9 µM | EKVX > 100 µM | SR 57.1 µM | OVCAR-5 > 100 µM | HT-29 > 100 µM | 786-0 > 100 µM | COLO 205 > 100 µM | SK-MEL-28 > 100 µM | SF-539 > 100 µM

CN1c2c(O)nc(N)nc2NCC1CCNc1ccc(C(=O)NC(CCC(=O)O)C(=O)O)cc1 (stereo unspecified)
inactive: SK-MEL-5 1120 µM | RPMI-8226 141 µM | ACHN 45.4 µM | KM12 916 µM | A498 948 µM | MDA-N 112 µM | SF-268 1110 µM | SNB-78 1130 µM | UACC-257 1030 µM | MDA-MB-231 1530 µM | HL-60 48.1 µM | EKVX 1260 µM | SR 25.5 µM | OVCAR-5 1520 µM | HT-29 19.6 µM | 786-0 4.59 µM | COLO 205 1330 µM | SK-MEL-28 695 µM | MDA-MB-435 104 µM | SF-539 132 µM

O=[N+]([O-])C1(CO)COC2(OC1)c1ccccc1-c1ccccc12
inactive: SK-MEL-5 > 100 µM | RPMI-8226 23.8 µM | ACHN > 81.3 µM | KM12 > 100 µM | A498 > 100 µM | MDA-N > 64 µM | SF-268 52.8 µM | SNB-78 > 100 µM | UACC-257 79.8 µM | MDA-MB-231 > 100 µM | HL-60 21.9 µM | EKVX > 100 µM | SR 40.6 µM | OVCAR-5 > 100 µM | HT-29 > 63.5 µM | 786-0 63.8 µM | COLO 205 40.5 µM | SK-MEL-28 > 100 µM | MDA-MB-435 > 100 µM | SF-539 > 69.3 µM

COc1ccc(/C=C2\CCC(CN(C)C)C2=O)cc1OC (stereo unspecified)
inactive: SK-MEL-5 10.1 µM | RPMI-8226 1.28 µM | ACHN 7 µM | KM12 2.37 µM | A498 14.6 µM | SF-268 10.7 µM | SNB-78 17.5 µM | UACC-257 5.41 µM | MDA-MB-231 2.35 µM | HL-60 2.07 µM | EKVX 16.1 µM | SR 1.86 µM | OVCAR-5 14.8 µM | HT-29 5.61 µM | 786-0 3.34 µM | COLO 205 2.07 µM | SK-MEL-28 5.48 µM | MDA-MB-435 5.55 µM | SF-539 10.5 µM
